According to patent US20260108554A1, “METHODS FOR REPROGRAMMING AND GENE EDITING CELLS” (Factor Bioscience Inc., priority 2022, published 2026):
Several values for one entry are separate records, joined by “and”; a condition that tells them apart may be missing. Equal entries are not always repeated.

What was measured:
Format in all cases: cell-based, human
[1] = tested on: fibroblasts; test: cell cycle S/G2 population after Resveratrol treatment
[2] = tested on: AAVS1; test: 1 kb insertion in iPSCs (AAVS1 sPCR amplicon gel); conditions: iPSC
Procedure: (§1) • 1. Fibroblasts were cultured using DMEM+10% FBS media in 37° Celsius with 5% O2 and 5% CO2 • 2. iPSC was cultured using mTeSR+Y27632 in 37° Celsius with 5% O2 and 5% CO2
(§2) • 3. After detaching cells with TrypleE and DTI, standard electroporation protocol was performed • 4. 0.8 ug˜1 ug of AAVS1 Ultraslice RNA and 600 ng of SfoI ssDNA repair template was delivered by electroporation. Ultraslice is a temperature sensitive gene-editing protein. The SfoI base change ssDNA repair template was a single stranded DNA piece with homology arms that is used as template for targeted DNA repair • 5. Fibroblasts were electroporated with 700 V, 20 ms, 1 pulse • 6. iPSCs were electroporated with 1100 V, 20 ms, 2 pulse)
In this experiment, the gel image is AAVS1 sPCR amplicon and not Sfol assay product. In the gel, Lane 1: 1000 base ladder; Lane 2: Ultraslice (Clean cap) and SfoI 1 kb insertion ssDNA repair template with 90b homology arm (Reverse transcription); and Lane 3: Ultraslice (Clean cap) and SfoI 1 kb insertion ssDNA repair template with 90b homology arm (Reverse transcription)—Resveratrol 25 uM 24 h incubation.
In this experiment, the gel image is AAVS1 sPCR amplicon and not Sfol assay product. […]

[3] = tested on: AAVS1 safe-harbor locus; test: SfoI assay (RFLP) of single-base editing in fibroblasts; conditions: for increase in single-base editing / base change efficiency compared to untreated: application after transfection (25 μM 48 h post electroporation)
Procedure: The following general protocol was used for an Sfol assay to quantify insertion of repair template.
as §1, §2
• 7. Cells were detached 48 h˜72 h post electroporation and centrifuged to obtain cell pellets • 8. Perform genomic DNA extraction was performed using ZYMO Research Quick DNA Miniprep Kit (Catalog #: D3024)
• 9. AAVS1 surveyor PCR was performed using KAPA Hifi Hotstart PCR kit
• 10. 250 ng˜400 ng of AAVS1 PCR amplicon was obtained • 11. Amplicon was mixed with 2 μl of 10× Tango Buffer and 1 μl of EheI enzyme • 12. The mixture was incubated for 1 h in 37° C., followed by 20 mins at 65° C.
• 13. After diluting SfoI assay product with 40 ul of H2O, 20 ul of product was loaded to 2% Egel • 14. After running 2% Egel for 10 minutes, the gel was visualized and SfoI band intensity was quantified using Chemidoc and ImageJ software
Following treatment with resveratrol, fibroblasts was co-transfected with mRNA encoding a chromatin context-sensitive gene-editing protein targeting the AAVS1 safe-harbor locus and a single-stranded DNA repair template designed to introduce a SfoI restriction-enzyme site through a G-to-C mutation. Single-base editing efficiency was determined by restriction fragment length polymorphism (RFLP) analysis. […] In the gel, Lane 1: 100 base ladder; Lane 2: Ultraslice and SfoI base change ssDNA repair template (Resveratrol 25 μM 48 h pretreatment); Lane 3: Ultraslice and SfoI base change ssDNA repair template (Untreated); and Lane 4: Ultraslice and SfoI base change ssDNA repair template (Resveratrol 25 μM treatment 48 post electroporation).

[4] = tested on: AAVS1; test: 300 base insertion in fibroblasts (SfoI cut band)
Procedure: In the gel, Lane 1: 100 base ladder; Lane 2: Ultraslice and SfoI 300 base insertion dsDNA repair template (Untreated); and Lane 3: Ultraslice and SfoI 300 base insertion dsDNA repair template (NU7441 9 uM 72 h treated).

[5] = tested on: iMSCs; test: electroporation of GFP repair template at AAVS1 with or without TTAGGG motif; conditions: gene-editing at AAVS1 with GFP repair template
Procedure: FIG. 54 is a graphical illustration of the mechanism of action that the inclusion of the TTAGGG motif has on cells during electroporation. Cells were electroporated with and without the addition of a gene editing protein, UltraSlice. All electroporation's were performed using the Invitrogen NEON.
In this example, the TTAGGG motif was incorporated onto the 5′ end of a double stranded repair template or co-electroporated as a short oligo fragment in primary fibroblasts, iMSC, or iPSC.
The sequence of the TTAGGG motif used in this example was: […] (SEQ ID NO: 15). This motif was incorporated at the 5′ and 3′ end of dsODN via PCR amplification using the primer pair A151-AAVS1, Forward primer: […] (SEQ ID NO: 86) and A151-AAVS1, Reverse primer: […] (SEQ ID NO: 87). Control primers without the motif had the following sequences: AAVS1, Forward primer: […] (SEQ ID NO: 88) and AAVS1, Reverse primer: […] (SEQ ID NO: 89). The full sequence of the repair template that human primary fibroblasts, iMSCs and iPSCs was: AAVS1-h90-pJeT-GFP-SpA-h90. This repair template included a dsODN encoding a GFP reporter and containing an SfoI restriction site targeting the AAVS1 site with 90 base pairs of homology. The A151 sequence was added to the end of a double stranded repair template using PCR amplification. Repair templates were then purified using the Qiagen QIAquick PCR Purification kit prior to electroporation. […]

`Oc1ccc(C=Cc2cc(O)cc(O)c2)cc1` [Resveratrol] was tested, and the “increase in S/G2 population” value ([1]; 25 uM for 48 h followed by 8 h incubation in DMEM/10% FBS) was “approximately 40%”, the “increase of the S and G2-phase population” value ([1]; treatment prior to transfection, compared to untreated cells) was 2.3 fold and the “1 kb insertion rate” value ([2]; 25 uM for 24 h post electroporation, ssDNA repair template (Reverse transcription)) was 8.7%. For the same compound, the “increase of 1 kb insertion” value ([2]; treatment after electroporation) was 1.6 fold, the “increase in single-base editing / base change efficiency compared to untreated” value [3] was “approximately 2.3 fold” and the “increase in single-base editing / base change efficiency compared to untreated” value ([3]; listed as resveratrol) was greater than 2 fold. The “increase in HDR / base change efficiency compared to untreated” value ([3]; fibroblasts, 25 μM 48 h pretreatment prior to transfection) was 2.2 fold and 2 fold and the “gene-editing efficiency (gel)” value ([3]; pretreated fibroblasts) was “increased gene-editing efficiency”.

For `O=c1cc(N2CCOCC2)oc2c(-c3cccc4c3sc3ccccc34)cccc12` [NU7441], the “gene-editing efficiency (gel)” value [4] was “increased gene-editing efficiency” and the “increase in 300b insertion SfoI cut band intensity compared to untreated” value ([4]; fibroblasts, 9 uM 72 h incubation) was 7 fold.

In the case of TTAGGGTTAGGGTTAGGGTTAGGG [A151 ODN], the “higher viability than when the motif was not present” value [5] is reported as “approximately 50%” and the “more GFP-positive cells than when the motif was not present” value [5] is reported as “approximately 50%”.
